The source of these data is patent US5153211A, “Spiro-tricyclicaromatic succinimide derivatives as inhibitors of aldose reductase” (Alcon Laboratories, Inc., priority 1991, dated 1992).

pIC50: −log10 of the molar value. Read-outs that look alike come from different tables or passages of the source.

The target of assay [1] is T1, rat lens aldose reductase (Rattus norvegicus, UniProt P07943).
T1 construct: evaluated against rat lens aldose reductase; from tissue; host or cells: rat lens
Briefly: inhibition of rat lens aldose reductase. It is filed as biochemical. On the procedure: *IC50 values are based on inhibition of rat lens aldose reductase.
a) P. F. Kador, L. O. Merola and J. H. Kinoshita, Docum. Ophthal. Proc. Series, 18, 117-124 (1979);
b) P. F. Kador, J. H. Kinoshita, W. H. Tung and L. T. Chylack, Jr., Invest. Ophthalmol. Vis. Sci., 19, 980-982 (1980);
c) P. F. Kador, D. Carper and J. H. Kinoshita, Analytical Biochemistry, 114, 53-58 (1981).
Wherein the assay mixture used in the tests containing 0.1M potassium phosphate buffer, pH 6.2, 0.2 mM nictoinamide adenine dinucleotide phosphate (NADPH), 10 mM D,L-glyceraldehyde, and an appropriate volume of the enzyme preparation, thermostated at 25° C. in the cell compartment of a spectrophotometer. These conditions are identical to those published in references (a), (b) and (c), except that a larger NADPH concentration was employed. […] The control sample contained no added inhibitor. In order to measure aldose reductase inhibition activity, varying concentrations of the inhibitor examples set forth below were added to the standard incubation mixture. The control, containing the enzyme and NADPH, gave a very small, but measurable rate; thus, it served as the blank against which to measure the glyceraldehyde-dependent rate of NADPH oxidation. The tests were conducted with human placental aldose reductase enzyme. The results of the tests are the product of multiple assays. […] A test compound is considered active if it inhibits or reduces human aldose reductase activity at 1×10^-4 M concentration or less. The following list is provided as a representative sample of the biological activity of the spiro-tricyclic derivatives of the present invention.
According to the procedures of Kador, Merola and Kinoshite, Docum. Ophthal. Proc. Series, 18 (1979) 117 and Kador and Sharpless, Biophysical Chemistry, 8 (1978) 81 the inhibition exerted by examples of the present invention where evaluated against rat lens aldose reductase. Otherwise, the inhibitor assay is identical to that employed against human aldose reductase in Example XXVI. Representative rat lens aldose reductase inhibition is presented in terms of the concentration of test compound required to reduce rat lens aldose reductase enzyme activity by 50%. A test compound is considered active if it inhibits or reduces rat lens aldose reductase activity at 1×10^-4 M concentration or less.

The test system of assay [2] is rat lenses in 30 mM xylose culture. The assay is described as follows: rat lens culture assay, 30 mM xylose cataract model. Format: cell-based, Sprague-Dawley rats. The conditions noted are these: for lens opacification / lens wet weight increase: 7.5×10^-7 M in the culture media, 30 mM xylose, 18 h; for activity at 0.75 µM: Rattus norvegicus, after 18 h 30 mM xylose culture, compound 7.5 × 10^-7 M, % of control contralateral lens. The procedure: Aldose reductase inhibitor potency may be evaluated in rat lens culture assays where 30 mM of glucose, galactose or xylose can be used in culture to induce a `sugar` cataract. In addition to monitoring lens clarity, certain biochemical radiolabeled markers (e.g., choline --^3 H and ^86 Rb) are employed to measure lens function. See Obazawa, Merola and Kinoshita, Invest. Ophthalmol., 13 (1974) 204 and Jernigan, Kador and Kinoshita, Exp. Eye Res., 32 (1981) 709.
The general procedure is as follows: a) Sprague-Dawley rats of 75-100 g body weight are sacrificed and the lenses removed immediately; b) the contralateral lens of the pair of lenses is employed as untreated control lens; c) the test lens is cultured in TC-199 culture media in the presence of 30 mM xylose, 30 mM xylose plus a selected concentration of test compound or a selected concentration of test compound; d) the contralateral control lens is treated identical to the test lens except no test compound or xylose is included; e) the matched lens pairs are cultured for 18 h in a CO2 incubator; f) the lenses are compared morphologically and weighed. All lenses, control and test groups, are allowed to preincubate for 1 h in respective control media or drug control media prior to transfer to xylose media or xylose-drug media. In those cases where radiolabelled markers are to be measured, the lenses are treated as aforementioned except the radiolabelled marker(s) are added to the culture at four hours before harvesting. Radiolabelled markers include choline --^3 H ([…] available from New England Nuclear), AIBA --^14 C (α-[1-^14 C]-(CH3)2 C(NH2)COOH available from New England Nuclear) and ^86 Rb. The effect of xylose on lens uptake of ^86 Rb, lens uptake of amino acid (AIBA --^14 C) and lens uptake of choline --^3 H and the effectiveness of representative compounds of the present invention to preserve normal lens morphology is reported here.
The effect of 30 mM xylose and 30 mM xylose plus selected concentrations of test compound on radioactivity ratio is expressed as L/M % of control. L/M % of control is defined as the test lens radioactivity divided by culture media radioactivity as a percentage of the control contralateral lens radioactivity to media radioactivity ratio under identical test conditions but always without xylose or test compound in the control. The effect of 30 mM xylose in the culture media gives a reproducible deleterious effect on the lens as measured by the various L/M %. Furthermore, after incubation of the lens in 30 mM xylose in the TC-199 culture media, the lens gains 20% weight (mostly water weight increase based on dry lens weight measurements) and becomes opaque in the cortex of the lens. Each experiment requires 20-40 pairs of lenses to determine the potency of a selected aldose reductase inhibitor.

Assay [3] relates to galactosemic rats. The conditions noted are these: per oral, once daily, cited from earlier work.
For assay [4], the system named is chronic streptozotocin-induced rats. The conditions noted are these: 8 mg/kg per oral per day; cited from earlier work.
Where [5] appears, read: based on inhibition of rat lens aldose reductase, read-out: IC50.
Where [6] appears, read: read-out: L/M% = Lens uptake of 86Rb.
Setting [7] is: read-out: L/M% = Lens uptake of AIBA-14C (amino acid).
Setting [8] is: read-out: L/M% = Lens uptake of choline-3H.

Turning to `COc1cc(F)cc2c1-c1ccc(F)cc1C21CC(=O)NC1=O` (centres unmarked) [Compound 17, 2,7-DIFLUORO-4-METHOXYSPIRO[9H-FLUORENE-9,3'-PYRROLIDINE]-2',5'-DIONE], in assay [1] (setting [5]), the negative logarithm of the IC50 (pIC50) (in general, the IC50 on a negative log10 scale, so that one unit is a factor of ten) was 8.32.

In the case of `O=C1NC(=O)C2(S1)c1ccccc1-c1ccc(F)cc12` (centres unmarked) [C, Spiro-(2-fluoro-9H-fluoren-9,5'-thiazolidine)-2',4'-dione], in assay [2], the lens opacification result is recorded as “prevented”. The “lens wet weight increase” value in assay [2] was “prevented”. For the same molecule, the activity at 0.75 µM in assay [2] (setting [6]) was found to be 70%; in assay [2] (setting [7]) it was 58%; in assay [2] (setting [8]), 77%.

`Cc1cc(F)cc2c1-c1ccc(F)cc1C21CC(=O)NC1=O` (centres unmarked) [Compound 3, 2,7-DIFLUORO-4-METHYLSPIRO[9H-FLUORENE-9,3'-PYRROLIDINE]-2',5'-DIONE]: the negative-log IC50 (pIC50) in assay [1] (setting [5]) was 8.55.

Turning to `O=C1NC(=O)C2(N1)c1cc(F)cc(F)c1-c1c(F)cc(F)cc12` [Compound 9, 2,4,5,7-TETRAFLUOROSPIRO[9H-FLUORENE-9,4'-IMIDAZOLIDINE]-2',5'-DIONE], in assay [1] (setting [5]), the negative-log IC50 (pIC50) is 7.92.

Take `COc1cc(F)cc2c1-c1ccc(F)cc1C21NC(=O)NC1=O` (centres unmarked) [Compound 16, 2,7-DIFLUORO-4-METHOXYSPIRO[9H-FLUORENE-9,4'-IMIDAZOLIDINE]-2',5'-DIONE]: the negative logarithm of the IC50 (pIC50) in assay [1] (setting [5]) was 8.03.

Consider `CSc1cc(F)cc2c1-c1ccc(F)cc1C21NC(=O)NC1=O` (centres unmarked) [Compound 34, 2,7-DIFLUORO-4-METHYLTHIOSPIRO[9H-FLUORENE-9,4'-IMIDAZOLIDINE]-2',5'-DIONE], for which the pIC50 in assay [1] (setting [5]) is 7.76.

Take `COc1cc(F)cc2c1-c1c(F)cc(F)cc1C21NC(=O)NC1=O` (centres unmarked) [Compound 28, 2,4,7-TRIFLUORO-5-METHOXYSPIRO[9H-FLUORENE-9,4'-IMIDAZOLIDINE]-2',5'-DIONE]: the negative logarithm of the IC50 (pIC50) in assay [1] (setting [5]) is 4.95.

Consider `COc1cc(F)cc2c1-c1c(OC)cc(F)cc1C21NC(=O)NC1=O` [2,7-difluoro-4,5-dimethoxyspiro (9H-fluorene-9,4'-imidazolidine)-2',5'-dione], for which the negative-log IC50 (pIC50) in assay [1] (based on the inhibition of rat lens aldose reductase, read-out: IC50 value) is 8.11.

With `O=C1NC(=O)C2(S1)c1cc(F)ccc1-c1ccc(F)cc12` [D, Spiro-(2,7-difluoro-9H-fluoren-9,5'-thiazolidine)-2',4'-dione], in assay [2], the lens opacification entry was “prevented”. The “lens wet weight increase” value in assay [2] is recorded as “prevented”. For the same molecule, the activity at 0.75 µM in assay [2] (setting [6]) came out at 83%; in assay [2] (setting [7]) it was 85%; in assay [2] (setting [8]), 109%.

As for `O=C1NC(=O)C2(S1)c1cc(F)cc(F)c1-c1c(F)cc(F)cc12` [Compound 7, 2,4,5,7-TETRAFLUOROSPIRO[9H-FLUORENE-9,5'-THIAZOLIDINE]-2',4'-DIONE], the pIC50 in assay [1] (setting [5]) was 7.77.

As to `Cc1cc(F)cc2c1-c1ncc(F)cc1C21NC(=O)NC1=O` (centres unmarked) [Compound 43, 3,7-DIFLUORO-9-METHYLSPIRO[5H-INDENO[1,2-b]PYRIDIN-5,4'-IMIDAZOLIDINE]-2',5'-DIONE], in assay [1] (setting [5]), the pIC50 is 7.79.

Consider `O=C1NC(=O)C2(N1)c1ccccc1-c1ccc(F)cc12` (centres unmarked) [Compound A, Spiro-(-2-fluoro-9H-fluoren-9,4'-imidazolidine)-2',5'-dione, reference compound], for which the “preventing cataract in galactosemic rats” value in assay [3] (1.26 mg/kg) was “wholly effective”. Also, in assay [4], the “cataract in chronic streptozotocin-induced rats” value was “prevent cataract”. The “motor nerve conduction velocity in chronic streptozotocin-induced rats” value in assay [4] is listed as “significantly preserve”. In addition, the lens opacification entry in assay [2] was “prevented”. In assay [2], the “lens wet weight increase” value is “prevented”. Besides, the values for the activity at 0.75 µM in assay [2] (setting [6]), in assay [2] (setting [7]) and in assay [2] (setting [8]) were 55%, 50% and 73%, respectively.

`Cc1ccc2c(n1)-c1c(F)cc(F)cc1C21NC(=O)NC1=O` (centres unmarked) [Compound 22, 7,9-DIFLUORO-2-METHYLSPIRO[5H-INDENO[1,2-b]PYRIDIN-5,4'-IMIDAZOLIDINE]-2',5'-DIONE]: the pIC50 in assay [1] (setting [5]) is 7.32.

For `O=C1NC(=O)C2(N1)c1cc(F)ccc1-c1ccc(F)cc12` [B, Spiro-(2,7-difluoro-9H-fluoren-9,4'-imidazolidine)-2',5'-dione, reference compound], the “preventing cataract in galactosemic rats” value in assay [3] (0.4 mg/kg) was “wholly effective”. The lens opacification result in assay [2] was “prevented”. For the same molecule, in assay [2], the “lens wet weight increase” value was “prevented”. Moreover, the figures for the activity at 0.75 µM in assay [2] (setting [6]), in assay [2] (setting [7]) and in assay [2] (setting [8]) were 82%, 87% and 105%, respectively.

In the case of `Cc1cc(F)cc2c1-c1ccc(F)cc1C21NC(=O)NC1=O` (centres unmarked) [Compound 11, 2,7-DIFLUORO-4-METHYLSPIRO[9H-FLUORENE-9,4'-IMIDAZOLIDINE]-2',5'-DIONE], in assay [1] (setting [5]), the negative-log IC50 (pIC50) is 7.89.
